{
  "source": "paper PMC10681007",
  "about": "“Targeted Degradation of XIAP is Sufficient and Specific to Induce Apoptosis in MYCN-overexpressing High-risk Neuroblastoma” (Cancer Research Communications, 2023)",
  "key": {"[1]": {"biological_target": "T1, XIAP (NanoLuc-XIAP) (Homo sapiens, UniProt P98170)", "T1 construct": "host or cells: BE(2)-C and KELLY human neuroblastoma cells", "T1 sequence (P98170 whole entry)": "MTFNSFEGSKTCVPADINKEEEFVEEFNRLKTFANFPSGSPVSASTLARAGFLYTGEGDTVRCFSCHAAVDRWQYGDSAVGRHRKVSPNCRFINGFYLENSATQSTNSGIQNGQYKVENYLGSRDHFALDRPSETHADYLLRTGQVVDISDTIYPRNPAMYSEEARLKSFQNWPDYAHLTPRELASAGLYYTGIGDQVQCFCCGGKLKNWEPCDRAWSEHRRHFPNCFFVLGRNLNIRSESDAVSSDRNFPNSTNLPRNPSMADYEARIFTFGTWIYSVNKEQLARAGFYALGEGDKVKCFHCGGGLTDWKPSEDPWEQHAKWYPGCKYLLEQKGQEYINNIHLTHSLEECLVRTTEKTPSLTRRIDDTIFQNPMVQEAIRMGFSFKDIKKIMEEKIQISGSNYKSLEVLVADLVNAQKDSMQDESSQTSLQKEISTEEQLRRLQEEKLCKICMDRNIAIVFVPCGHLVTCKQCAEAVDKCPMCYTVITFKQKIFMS", "assay": "NanoBRET XIAP target engagement assay", "format": "binding", "settings": "NanoBRET tracer displacement, read-out: apparent intracellular affinity to XIAP (EC50)", "protocol": "To better understand the mechanisms by which these compounds target XIAP in high-risk neuroblastoma, binding interactions between the antagonists and XIAP were first determined in BE(2)-C and KELLY cells using a NanoBRET quantitative target engagement assay. […] As the BRET signal was not completely abolished even at saturating A4 concentrations, NMR was conducted to further examine the binding interaction between A4 and XIAP (Supplementary Fig. S2A and S2B).\nFIGURE 3 Binding and degradation of XIAP by A4 is necessary for targeting high-risk neuroblastoma cells. […] BRET signal was measured at 2 hours after treatment using a Tecan Infinite 200 Pro equipped with NanoBRET dual-filters (donor 460 nm and acceptor 618 nm) and determined via the formula (BRET ratio = values at 618 nm/values at 460 nm). […] Cells were treated with increasing dose of A4 or BV6 and luminescence was measured continuously in real time for 2 hours. Luminescence values were normalized to DMSO vehicle control and degradation profiles were generated using GraphPad Prism. Values were expressed as mean ± SD of three independent experiments conducted in duplicates. […] BRET signal was measured every 5 minutes for 6 hours after treatment using a Tecan equipped with NanoBRET dual-filters (donor 460 nm and acceptor 618 nm) and determined via the formula (BRET ratio = values at 618 nm/values at 460 nm). […]"}, "[2]": {"test_system": "BE(2)-C and KELLY cells", "assay": "Apoptosis (cleaved PARP/caspase-3, Caspase-Glo 3/7)", "format": "cell-based, Human", "settings": "10 µmol/L", "protocol": "The determination of caspase-3/7 levels as an indication for apoptosis activity was performed using a Caspase-Glo 3/7 assay kit from Promega according to manufacturer's instructions. Cells were seeded at 1 × 10^4 cells per well and treated with 10 µmol/L of IAP antagonists for various indicated timings, followed by bioluminescence measurement using luminescent plate reader, Tecan Infinite200 Pro. The activity of apoptosis was also measured by flow cytometry using the Dead Cell Apoptosis Kit with Annexin V FITC and PI (Thermo Fisher Scientific) according to manufacturer's instructions. Cells harvested from lentiviral infection were subjected to Annexin V (2.5 µL) and PI (40 ng/mL, 0.5 µL) staining, followed by flow cytometric analysis using BD LSRFortessa cell analyzer with excitation/emission spectra of 494 nm/518 nm for FITC and 535 nm/617 nm for PI.\nFIGURE 2 Specific loss of XIAP expression, not c-IAP1, is required for mediating apoptosis in high-risk neuroblastoma cells. A, Summary of IAP antagonists’ efficacy in killing neuroblastoma cells. […] C, Graphical representation showing the fold change of caspase-3/7 activity relative to vehicle controls after treatment with 10 µmol/L of either A4, B3, or BV6 at indicated timings (data were expressed as mean ± SD of three independent experiments conducted in duplicates; *, P < 0.05). […]"}},
  "note": "Where two headings read alike, the source gives them in different places. Starred links: 1 amine or outer side, 2 acyl side, 3 side chain; linkers in the order of their positions; H or OH if unused. Positions of bridges follow the written chain, without caps; N, C: chain ends. Non-standard residues stand in square brackets, D forms with d. Residues, ends and D or L forms follow the SMILES beside them. Chains are numbered I, II in the order given. Hexamethylenediamine = C(CCCN[*:2])CCN[*:1]; Dip = N[C@H](C(=O)O)C(c1ccccc1)c1ccccc1; Chg = N[C@H](C(=O)O)C1CCCCC1; NMeA = CN[C@@H](C)C(=O)O",
  "data": [
    {"compound": "CN[C@@H](C)C(=O)N[C@H](C(=O)N1CCC[C@H]1C(=O)N[C@H](C(=O)NCCCCCCNC(=O)[C@@H](NC(=O)[C@@H]1CCCN1C(=O)[C@@H](NC(=O)[C@H](C)NC)C1CCCCC1)C(c1ccccc1)c1ccccc1)C(c1ccccc1)c1ccccc1)C1CCCCC1", "note": "[BV6] (I: H-[NMeA][Chg]P[Dip] / II: H-[NMeA][Chg]P[Dip]; linker I:C-II:C via Hexamethylenediamine)", "values": [
      {"measurement": "EC50", "setting": "[1]; BE(2)-C cells", "result": 210, "unit": "nM"},
      {"measurement": "EC50", "setting": "[1]; KELLY cells", "result": 300, "unit": "nM"},
      {"measurement": "apoptosis (PARP and caspase-3 cleavage, caspase-3/7 activity)", "setting": "[2]", "result": "minimal or no apoptosis"}
    ]}
  ]
}
